According to paper PMC8632988, “Inhibition of SYK and cSrc kinases can protect bone and cartilage in preclinical models of osteoarthritis and rheumatoid arthritis” (Scientific Reports, 2021):

Columns and labels:
Test in all cases: Kinase selectivity profile assay
Format in all cases: biochemical
ALK3/BMPR1A = target: T1, ALK3/BMPR1A (Homo sapiens, UniProt P36894); conditions: 500 nM; relative to DMSO; read-out: Residual enzymatic activity
T1 construct: purchased Reaction Biology Corporation
Procedure, shortened: (§1)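 Radiometric kinase assay run by a standard protocol. Unbound phosphate was removed by washing filters in phosphoric acid, and product radioactivity gave percent remaining kinase activity versus DMSO vehicle reactions. Run in duplicate.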

ARAF = target: T2, ARAF (Homo sapiens, UniProt P10398); conditions: 500 nM; relative to DMSO; read-out: Residual enzymatic activity
T2 construct: purchased Reaction Biology Corporation
Procedure, shortened: as §1

CAMK2b = target: T3, CAMK2b (Homo sapiens, UniProt Q13554); conditions: 500 nM; relative to DMSO; read-out: Residual enzymatic activity
T3 construct: purchased Reaction Biology Corporation
Procedure, shortened: as §1

CAMK2g = target: T4, CAMK2g (Homo sapiens, UniProt Q13555); conditions: 500 nM; relative to DMSO; read-out: Residual enzymatic activity
T4 construct: purchased Reaction Biology Corporation
Procedure, shortened: as §1

CDC7/DBF4 = target: T5, CDC7/DBF4 (Homo sapiens, UniProt O00311); conditions: 500 nM; relative to DMSO; read-out: Residual enzymatic activity
T5 construct: purchased Reaction Biology Corporation
Procedure, shortened: as §1

CDK6/cyclin D3 = target: T6, CDK6/cyclin D3 (Homo sapiens, UniProt Q00534); conditions: 500 nM; relative to DMSO; read-out: Residual enzymatic activity
T6 construct: purchased Reaction Biology Corporation
Procedure, shortened: as §1

CHK2 = target: T7, CHK2 (Homo sapiens, UniProt O96017); conditions: 500 nM; relative to DMSO; read-out: Residual enzymatic activity
T7 construct: purchased Reaction Biology Corporation
Procedure, shortened: as §1

CK1g2 = target: T8, CK1g2 (Homo sapiens, UniProt P78368); conditions: 500 nM; relative to DMSO; read-out: Residual enzymatic activity
T8 construct: purchased Reaction Biology Corporation
Procedure, shortened: as §1

CK1g3 = target: T9, CK1g3 (Homo sapiens, UniProt Q9Y6M4); conditions: 500 nM; relative to DMSO; read-out: Residual enzymatic activity
T9 construct: purchased Reaction Biology Corporation
Procedure, shortened: as §1

COT1/MAP3K8 = target: T10, COT1/MAP3K8 (Homo sapiens, UniProt P41279); conditions: 500 nM; relative to DMSO; read-out: Residual enzymatic activity
T10 construct: purchased Reaction Biology Corporation
Procedure, shortened: as §1

DAPK2 = target: T11, DAPK2 (Homo sapiens, UniProt Q9UIK4); conditions: 500 nM; relative to DMSO; read-out: Residual enzymatic activity
T11 construct: purchased Reaction Biology Corporation
Procedure, shortened: as §1

DCAMKL2 = target: T12, DCAMKL2 (Homo sapiens, UniProt Q8N568); conditions: 500 nM; relative to DMSO; read-out: Residual enzymatic activity
T12 construct: purchased Reaction Biology Corporation
Procedure, shortened: as §1

EPHA5 = target: T13, EPHA5 (Homo sapiens, UniProt P54756); conditions: 500 nM; relative to DMSO; read-out: Residual enzymatic activity
T13 construct: purchased Reaction Biology Corporation
Procedure, shortened: as §1

ERK2/MAPK1 = target: T14, ERK2/MAPK1 (Homo sapiens, UniProt P28482); conditions: 500 nM; relative to DMSO; read-out: Residual enzymatic activity
T14 construct: purchased Reaction Biology Corporation
Procedure, shortened: as §1

FGFR1 = target: T15, FGFR1 (Homo sapiens, UniProt P11362); conditions: 500 nM; relative to DMSO; read-out: Residual enzymatic activity
T15 construct: purchased Reaction Biology Corporation
Procedure, shortened: as §1

FGR = target: T16, FGR (Homo sapiens, UniProt P09769); conditions: 500 nM; relative to DMSO; read-out: Residual enzymatic activity
T16 construct: purchased Reaction Biology Corporation (assay service)
Procedure, shortened: as §1

FMS = target: T17, FMS (Homo sapiens, UniProt P07333); conditions: 500 nM; relative to DMSO; read-out: Residual enzymatic activity
T17 construct: purchased Reaction Biology Corporation
Procedure, shortened: as §1

GRK3 = target: T18, GRK3 (Homo sapiens, UniProt P35626); conditions: 500 nM; relative to DMSO; read-out: Residual enzymatic activity
T18 construct: purchased Reaction Biology Corporation
Procedure, shortened: as §1

IGF1R = target: T19, IGF1R (Homo sapiens, UniProt P08069); conditions: 500 nM; relative to DMSO; read-out: Residual enzymatic activity
T19 construct: purchased Reaction Biology Corporation
Procedure, shortened: as §1

JNK3 = target: T20, JNK3 (Homo sapiens, UniProt P53779); conditions: 500 nM; relative to DMSO; read-out: Residual enzymatic activity
T20 construct: purchased Reaction Biology Corporation
Procedure, shortened: as §1

LCK2/ICK = target: T21, LCK2/ICK (Homo sapiens, UniProt Q9UPZ9); conditions: 500 nM; relative to DMSO; read-out: Residual enzymatic activity
T21 construct: purchased Reaction Biology Corporation
Procedure, shortened: as §1

MAPKAPK5/PRAK = target: T22, MAPKAPK5/PRAK (Homo sapiens, UniProt Q8IW41); conditions: 500 nM; relative to DMSO; read-out: Residual enzymatic activity
T22 construct: purchased Reaction Biology Corporation
Procedure, shortened: as §1

MEK1 = target: T23, MEK1 (Homo sapiens, UniProt Q02750); conditions: 500 nM; relative to DMSO; read-out: Residual enzymatic activity
T23 construct: purchased Reaction Biology Corporation
Procedure, shortened: as §1

MEKK3 = target: T24, MEKK3 (Homo sapiens, UniProt Q99759); conditions: 500 nM; relative to DMSO; read-out: Residual enzymatic activity
T24 construct: purchased Reaction Biology Corporation
Procedure, shortened: as §1

MKK4 = target: T25, MKK4 (Homo sapiens, UniProt P45985); conditions: 500 nM; relative to DMSO; read-out: Residual enzymatic activity
T25 construct: purchased Reaction Biology Corporation
Procedure, shortened: as §1

MRCKa/CDC42BPA = target: T26, MRCKa/CDC42BPA (Homo sapiens, UniProt Q5VT25); conditions: read-out: Residual enzymatic activity
T26 construct: purchased Reaction Biology Corporation
Procedure, shortened: as §1

MST3/STK24 = target: T27, MST3/STK24 (Homo sapiens, UniProt Q9Y6E0); conditions: 500 nM; relative to DMSO; read-out: Residual enzymatic activity
T27 construct: purchased Reaction Biology Corporation
Procedure, shortened: as §1

NEK5 = target: T28, NEK5 (Homo sapiens, UniProt Q6P3R8); conditions: 500 nM; relative to DMSO; read-out: Residual enzymatic activity
T28 construct: purchased Reaction Biology Corporation
Procedure, shortened: as §1

P38g = target: T29, P38g (Homo sapiens, UniProt P53778); conditions: 500 nM; relative to DMSO; read-out: Residual enzymatic activity
T29 construct: purchased Reaction Biology Corporation
Procedure, shortened: as §1

PAK4 = target: T30, PAK4 (Homo sapiens, UniProt O96013); conditions: 500 nM; relative to DMSO; read-out: Residual enzymatic activity
T30 construct: purchased Reaction Biology Corporation
Procedure, shortened: as §1

PKA = target: T31, PKA (Homo sapiens, UniProt P17612); conditions: 500 nM; relative to DMSO; read-out: Residual enzymatic activity
T31 construct: purchased Reaction Biology Corporation
Procedure, shortened: as §1

PKCeta = target: T32, PKCeta (Homo sapiens, UniProt P24723); conditions: 500 nM; relative to DMSO; read-out: Residual enzymatic activity
T32 construct: purchased Reaction Biology Corporation
Procedure, shortened: as §1

SGK3/SGKL = target: T33, SGK3/SGKL (Homo sapiens, UniProt Q96BR1); conditions: 500 nM; relative to DMSO; read-out: Residual enzymatic activity
T33 construct: purchased Reaction Biology Corporation
Procedure, shortened: as §1

TAOK3/JIK = target: T34, TAOK3/JIK (Homo sapiens, UniProt Q9H2K8); conditions: 500 nM; relative to DMSO; read-out: Residual enzymatic activity
T34 construct: purchased Reaction Biology Corporation
Procedure, shortened: as §1

TBK1 = target: T35, TBK1 (Homo sapiens, UniProt Q9UHD2); conditions: 500 nM; relative to DMSO; read-out: Residual enzymatic activity
T35 construct: purchased Reaction Biology Corporation
Procedure, shortened: as §1

TIE2/TEK = target: T36, TIE2/TEK (Homo sapiens, UniProt Q02763); conditions: 500 nM; relative to DMSO; read-out: Residual enzymatic activity
T36 construct: purchased Reaction Biology Corporation
Procedure, shortened: as §1

TYK1/LTK = target: T37, TYK1/LTK (Homo sapiens, UniProt P29376); conditions: 500 nM; relative to DMSO; read-out: Residual enzymatic activity
T37 construct: purchased Reaction Biology Corporation
Procedure, shortened: as §1

TYRO3/SKY = target: T38, TYRO3/SKY (Homo sapiens, UniProt Q06418); conditions: 500 nM; relative to DMSO; read-out: Residual enzymatic activity
T38 construct: purchased Reaction Biology Corporation
Procedure, shortened: as §1

YES/YES1 = target: T39, YES/YES1 (Homo sapiens, UniProt P07947); conditions: 500 nM; relative to DMSO; read-out: Residual enzymatic activity
T39 construct: purchased Reaction Biology Corporation (Malvern, PA, USA)
Procedure, shortened: as §1

T1 sequence (P36894 24-532): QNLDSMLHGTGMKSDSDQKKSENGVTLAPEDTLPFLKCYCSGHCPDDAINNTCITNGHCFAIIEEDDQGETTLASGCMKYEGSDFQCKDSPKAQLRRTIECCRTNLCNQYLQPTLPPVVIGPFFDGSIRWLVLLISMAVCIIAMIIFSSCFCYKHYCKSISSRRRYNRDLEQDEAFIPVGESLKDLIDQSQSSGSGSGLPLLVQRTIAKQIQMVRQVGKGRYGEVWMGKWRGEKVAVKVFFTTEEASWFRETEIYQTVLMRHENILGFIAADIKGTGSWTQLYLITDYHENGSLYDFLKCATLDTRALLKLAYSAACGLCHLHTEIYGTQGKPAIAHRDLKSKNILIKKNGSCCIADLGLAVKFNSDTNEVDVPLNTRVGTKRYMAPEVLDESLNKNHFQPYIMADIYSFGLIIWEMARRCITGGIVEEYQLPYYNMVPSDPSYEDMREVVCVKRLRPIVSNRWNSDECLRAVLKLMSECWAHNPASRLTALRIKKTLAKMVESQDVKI
T4 sequence (Q13555 whole entry): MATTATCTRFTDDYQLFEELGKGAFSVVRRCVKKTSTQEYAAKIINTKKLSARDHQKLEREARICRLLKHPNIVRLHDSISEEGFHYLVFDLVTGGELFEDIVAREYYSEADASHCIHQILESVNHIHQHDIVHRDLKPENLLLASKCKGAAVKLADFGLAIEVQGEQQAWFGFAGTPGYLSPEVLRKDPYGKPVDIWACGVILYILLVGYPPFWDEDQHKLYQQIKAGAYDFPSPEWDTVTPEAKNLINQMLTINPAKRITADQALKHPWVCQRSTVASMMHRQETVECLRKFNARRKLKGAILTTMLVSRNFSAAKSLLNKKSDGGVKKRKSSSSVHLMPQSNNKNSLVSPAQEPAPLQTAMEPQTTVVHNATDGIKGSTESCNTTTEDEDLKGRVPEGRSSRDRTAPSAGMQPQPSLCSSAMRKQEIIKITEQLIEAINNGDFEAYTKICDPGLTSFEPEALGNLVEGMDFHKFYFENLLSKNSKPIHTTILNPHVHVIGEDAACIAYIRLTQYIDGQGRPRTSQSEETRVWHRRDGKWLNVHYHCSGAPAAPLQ
T17 sequence (P07333 20-972): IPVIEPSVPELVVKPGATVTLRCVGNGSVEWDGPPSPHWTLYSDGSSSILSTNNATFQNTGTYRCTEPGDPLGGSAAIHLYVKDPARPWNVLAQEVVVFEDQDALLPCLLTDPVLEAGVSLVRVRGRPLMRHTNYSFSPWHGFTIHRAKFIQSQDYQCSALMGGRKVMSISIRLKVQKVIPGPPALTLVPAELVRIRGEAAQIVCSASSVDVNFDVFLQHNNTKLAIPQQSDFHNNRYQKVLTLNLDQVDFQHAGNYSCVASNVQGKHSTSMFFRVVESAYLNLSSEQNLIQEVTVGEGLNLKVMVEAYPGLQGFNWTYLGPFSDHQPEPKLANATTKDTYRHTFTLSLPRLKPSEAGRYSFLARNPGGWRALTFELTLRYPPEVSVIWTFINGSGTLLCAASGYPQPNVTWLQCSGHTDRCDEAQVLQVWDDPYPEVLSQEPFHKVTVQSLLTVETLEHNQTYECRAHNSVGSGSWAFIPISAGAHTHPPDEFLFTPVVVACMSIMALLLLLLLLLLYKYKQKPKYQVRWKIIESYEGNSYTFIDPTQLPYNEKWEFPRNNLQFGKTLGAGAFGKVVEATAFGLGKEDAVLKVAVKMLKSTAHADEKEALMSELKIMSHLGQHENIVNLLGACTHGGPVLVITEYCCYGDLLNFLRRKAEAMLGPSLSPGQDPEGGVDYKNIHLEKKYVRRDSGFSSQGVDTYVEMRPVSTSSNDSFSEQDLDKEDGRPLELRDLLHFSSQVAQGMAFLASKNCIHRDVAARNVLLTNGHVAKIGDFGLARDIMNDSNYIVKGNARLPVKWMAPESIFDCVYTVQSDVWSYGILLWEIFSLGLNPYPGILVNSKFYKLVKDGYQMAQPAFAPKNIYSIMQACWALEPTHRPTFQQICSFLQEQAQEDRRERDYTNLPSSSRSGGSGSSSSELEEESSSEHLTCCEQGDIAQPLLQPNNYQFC
T19 sequence (P08069 31-1367): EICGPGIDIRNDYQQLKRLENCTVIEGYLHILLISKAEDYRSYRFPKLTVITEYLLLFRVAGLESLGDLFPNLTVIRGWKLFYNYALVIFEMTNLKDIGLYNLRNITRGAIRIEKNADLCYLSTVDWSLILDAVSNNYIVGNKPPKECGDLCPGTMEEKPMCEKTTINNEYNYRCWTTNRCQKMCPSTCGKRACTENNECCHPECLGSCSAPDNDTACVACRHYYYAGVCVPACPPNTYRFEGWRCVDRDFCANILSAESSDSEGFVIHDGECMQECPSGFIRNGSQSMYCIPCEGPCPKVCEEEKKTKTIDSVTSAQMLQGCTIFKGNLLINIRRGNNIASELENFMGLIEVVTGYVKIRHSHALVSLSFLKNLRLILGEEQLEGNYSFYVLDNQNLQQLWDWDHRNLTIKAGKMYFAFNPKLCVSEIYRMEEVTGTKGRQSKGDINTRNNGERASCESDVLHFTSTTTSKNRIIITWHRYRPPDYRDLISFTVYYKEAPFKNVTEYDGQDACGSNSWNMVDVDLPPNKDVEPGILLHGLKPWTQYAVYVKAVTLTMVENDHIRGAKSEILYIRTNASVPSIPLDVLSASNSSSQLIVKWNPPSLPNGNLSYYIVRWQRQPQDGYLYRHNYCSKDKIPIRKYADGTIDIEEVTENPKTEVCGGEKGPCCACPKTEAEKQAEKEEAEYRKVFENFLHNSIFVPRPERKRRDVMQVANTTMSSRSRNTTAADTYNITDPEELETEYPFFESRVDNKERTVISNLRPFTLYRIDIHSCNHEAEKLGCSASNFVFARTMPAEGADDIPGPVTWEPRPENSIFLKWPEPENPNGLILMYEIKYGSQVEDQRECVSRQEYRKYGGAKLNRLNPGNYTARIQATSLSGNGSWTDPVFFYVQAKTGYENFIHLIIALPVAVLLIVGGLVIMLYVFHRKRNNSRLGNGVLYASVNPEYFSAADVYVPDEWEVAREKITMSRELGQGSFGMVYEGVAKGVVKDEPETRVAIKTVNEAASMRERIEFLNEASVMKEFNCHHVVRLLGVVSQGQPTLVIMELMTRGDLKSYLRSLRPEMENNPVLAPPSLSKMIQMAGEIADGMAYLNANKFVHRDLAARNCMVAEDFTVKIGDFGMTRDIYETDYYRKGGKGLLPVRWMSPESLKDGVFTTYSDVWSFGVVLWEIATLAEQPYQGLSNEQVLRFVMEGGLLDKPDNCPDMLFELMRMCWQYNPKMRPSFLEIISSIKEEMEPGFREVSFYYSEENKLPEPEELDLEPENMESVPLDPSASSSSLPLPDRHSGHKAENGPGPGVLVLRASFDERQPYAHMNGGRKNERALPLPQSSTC
T18 sequence (P35626 whole entry): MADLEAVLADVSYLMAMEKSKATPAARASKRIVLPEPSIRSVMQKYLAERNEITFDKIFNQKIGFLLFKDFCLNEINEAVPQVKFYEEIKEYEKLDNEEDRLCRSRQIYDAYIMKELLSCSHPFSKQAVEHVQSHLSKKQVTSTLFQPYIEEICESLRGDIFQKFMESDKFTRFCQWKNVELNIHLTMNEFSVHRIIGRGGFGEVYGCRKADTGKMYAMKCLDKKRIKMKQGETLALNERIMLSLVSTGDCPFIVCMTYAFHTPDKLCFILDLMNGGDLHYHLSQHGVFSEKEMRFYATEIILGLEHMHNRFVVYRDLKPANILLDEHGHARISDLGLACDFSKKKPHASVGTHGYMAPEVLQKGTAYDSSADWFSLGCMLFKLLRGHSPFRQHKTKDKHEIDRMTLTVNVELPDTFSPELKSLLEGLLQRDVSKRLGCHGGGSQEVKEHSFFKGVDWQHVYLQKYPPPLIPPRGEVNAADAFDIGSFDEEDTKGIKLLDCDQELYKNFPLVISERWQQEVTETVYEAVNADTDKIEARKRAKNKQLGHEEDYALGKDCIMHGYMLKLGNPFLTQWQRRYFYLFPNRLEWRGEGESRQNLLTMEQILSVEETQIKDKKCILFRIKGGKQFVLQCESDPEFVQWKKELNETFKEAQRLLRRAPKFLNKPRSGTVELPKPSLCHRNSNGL
T24 sequence (Q99759 whole entry): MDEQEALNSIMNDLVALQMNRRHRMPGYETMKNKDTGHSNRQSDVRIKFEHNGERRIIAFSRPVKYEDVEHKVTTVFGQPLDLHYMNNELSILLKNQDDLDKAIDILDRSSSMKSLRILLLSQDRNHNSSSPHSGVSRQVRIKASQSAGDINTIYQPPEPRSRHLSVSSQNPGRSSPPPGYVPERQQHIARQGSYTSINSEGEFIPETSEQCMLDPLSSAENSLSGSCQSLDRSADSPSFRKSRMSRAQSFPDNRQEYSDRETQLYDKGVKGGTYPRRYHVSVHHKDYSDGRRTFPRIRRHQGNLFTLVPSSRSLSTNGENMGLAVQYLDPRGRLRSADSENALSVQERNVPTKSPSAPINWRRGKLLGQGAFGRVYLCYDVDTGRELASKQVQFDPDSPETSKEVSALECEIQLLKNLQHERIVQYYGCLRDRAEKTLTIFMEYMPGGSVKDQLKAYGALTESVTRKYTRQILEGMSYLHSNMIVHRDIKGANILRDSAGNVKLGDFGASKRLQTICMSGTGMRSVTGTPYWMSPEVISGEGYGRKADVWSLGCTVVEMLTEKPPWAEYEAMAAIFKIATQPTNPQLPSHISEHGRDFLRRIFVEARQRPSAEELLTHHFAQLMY
T25 sequence (P45985 whole entry): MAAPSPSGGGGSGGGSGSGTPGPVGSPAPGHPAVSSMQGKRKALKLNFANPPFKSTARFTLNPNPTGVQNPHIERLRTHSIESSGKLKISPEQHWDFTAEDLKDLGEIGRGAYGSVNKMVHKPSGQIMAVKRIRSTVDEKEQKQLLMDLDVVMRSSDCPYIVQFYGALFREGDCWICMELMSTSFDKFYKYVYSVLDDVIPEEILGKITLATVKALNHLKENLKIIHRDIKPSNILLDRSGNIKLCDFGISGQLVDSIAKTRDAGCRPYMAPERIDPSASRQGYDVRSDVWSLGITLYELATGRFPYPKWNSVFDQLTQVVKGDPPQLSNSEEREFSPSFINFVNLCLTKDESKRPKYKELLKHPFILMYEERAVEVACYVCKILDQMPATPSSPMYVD

SMILES: COc1cc(Nc2ncc(F)c(Nc3ccc4c(n3)NC(=O)C(C)(C)O4)n2)cc(OC)c1OC [R406, reference compound]
- remaining activity at 0.5 µM (ALK3/BMPR1A): 120%
- remaining activity at 0.5 µM (ARAF): 41%
- remaining activity at 0.5 µM (CAMK2b): 95.8%
- remaining activity at 0.5 µM (CAMK2g): 101%
- remaining activity at 0.5 µM (CDC7/DBF4): 82.6%
- remaining activity at 0.5 µM (CDK6/cyclin D3): 97.4%
- remaining activity at 0.5 µM (CHK2): 50.7%
- remaining activity at 0.5 µM (CK1g2): 101%
- remaining activity at 0.5 µM (CK1g3): 79.6%
- remaining activity at 0.5 µM (COT1/MAP3K8): 100%
- remaining activity at 0.5 µM (DAPK2): 103%
- remaining activity at 0.5 µM (DCAMKL2): 91.8%
- remaining activity at 0.5 µM (EPHA5): 60.9%
- remaining activity at 0.5 µM (ERK2/MAPK1): 88%
- remaining activity at 0.5 µM (FGFR1): 29%
- remaining activity at 0.5 µM (FGR): 15.7%
- remaining activity at 0.5 µM (FMS): 17.2%
- remaining activity at 0.5 µM (GRK3): 102%
- remaining activity at 0.5 µM (IGF1R): 60.3%
- remaining activity at 0.5 µM (JNK3): 114%
- remaining activity at 0.5 µM (LCK2/ICK): 99.8%
- remaining activity at 0.5 µM (MAPKAPK5/PRAK): 99.4%
- remaining activity at 0.5 µM (MEK1): 87.2%
- remaining activity at 0.5 µM (MEKK3): 76.1%
- remaining activity at 0.5 µM (MKK4): 102%
- remaining activity at 0.5 µM (MRCKa/CDC42BPA): 104%
- remaining activity at 0.5 µM (MST3/STK24): 95.6%
- remaining activity at 0.5 µM (NEK5): 27.1%
- remaining activity at 0.5 µM (P38g): 90.5%
- remaining activity at 0.5 µM (PAK4): 53.9%
- remaining activity at 0.5 µM (PKA): 50.8%
- remaining activity at 0.5 µM (PKCeta): 96.6%
- remaining activity at 0.5 µM (SGK3/SGKL): 100%
- remaining activity at 0.5 µM (TAOK3/JIK): 77.2%
- remaining activity at 0.5 µM (TBK1): 13.9%
- remaining activity at 0.5 µM (TIE2/TEK): 69.9%
- remaining activity at 0.5 µM (TYK1/LTK): 30.2%
- remaining activity at 0.5 µM (TYRO3/SKY): 94.6%
- remaining activity at 0.5 µM (YES/YES1): 10.1%
